The supplement of paper PMC10307832

Legend:
Test in all cases: relative viability (nuclei count vs DMSO), 5 days (fraction); higher = more cells survive
XMD13-2 + Trametinib = compound: C1CC1C(=O)NC2=NNC3=C2C=CC(=C3)C4=CC(=CC=C4)C(=O)NC5CC5 [XMD13-2] + CC(=O)Nc1cccc(-n2c(=O)n(C3CC3)c(=O)c3c(Nc4ccc(I)cc4F)n(C)c(=O)c(C)c32)c1 [Trametinib] (partner 0.02 µM)
Method in brief: (§1)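 A single step with final 0.05% Triton X-100, 1% formaldehyde and 1 ug/ml Hoechst fixed the cells and stained nuclei 5 days after treatment. Lung cancer cell lines in 1536-well plates had been treated by pin tool the day after seeding with one drug alone or a fixed anchor-drug dose plus five library-drug doses (not always all listed) in √10 steps, and nuclei were counted on 4× images. Relative viability is the ratio of nuclei in treated wells to nuclei in vehicle wells, taken as the median of duplicate plates.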

XMD13-2 + Bortezomib = compound: C1CC1C(=O)NC2=NNC3=C2C=CC(=C3)C4=CC(=CC=C4)C(=O)NC5CC5 [XMD13-2] + CC(C)C[C@H](NC(=O)[C@H](Cc1ccccc1)NC(=O)c1cnccn1)B(O)O [Bortezomib] (partner 0.002 µM)
Method in brief: as §1

ALW-II-49-7 + Pictilisib = compound: Cc1ccc(C(=O)Nc2cccc(C(F)(F)F)c2)cc1Nc1cncc(C(N)=O)c1 [ALW-II-49-7] + CS(=O)(=O)N1CCN(Cc2cc3nc(-c4cccc5[nH]ncc45)nc(N4CCOCC4)c3s2)CC1 [Pictilisib] (partner 1 µM)
Method in brief: as §1

XMD13-2 + Crizotinib = compound: C1CC1C(=O)NC2=NNC3=C2C=CC(=C3)C4=CC(=CC=C4)C(=O)NC5CC5 [XMD13-2] + C[C@@H](Oc1cc(-c2cnn(C3CCNCC3)c2)cnc1N)c1c(Cl)ccc(F)c1Cl [Crizotinib] (partner 1 µM)
Method in brief: as §1

Cell Line | relative viability (XMD13-2 + Trametinib; first compound 0.05 µM) | relative viability (XMD13-2 + Trametinib; first compound 0.1581 µM) | relative viability (XMD13-2 + Trametinib; first compound 0.5 µM) | relative viability (XMD13-2 + Trametinib; first compound 1.581 µM) | relative viability (XMD13-2 + Trametinib; first compound 5 µM) | relative viability (XMD13-2 + Bortezomib; first compound 0.05 µM) | relative viability (XMD13-2 + Bortezomib; first compound 0.1581 µM) | relative viability (XMD13-2 + Bortezomib; first compound 0.5 µM) | relative viability (XMD13-2 + Bortezomib; first compound 1.581 µM) | relative viability (XMD13-2 + Bortezomib; first compound 5 µM) | relative viability (ALW-II-49-7 + Pictilisib; first compound 0.08 µM) | relative viability (ALW-II-49-7 + Pictilisib; first compound 0.253 µM) | relative viability (ALW-II-49-7 + Pictilisib; first compound 0.8 µM) | relative viability (ALW-II-49-7 + Pictilisib; first compound 2.53 µM) | relative viability (ALW-II-49-7 + Pictilisib; first compound 8 µM) | relative viability (XMD13-2 + Crizotinib; first compound 0.05 µM) | relative viability (XMD13-2 + Crizotinib; first compound 0.1581 µM) | relative viability (XMD13-2 + Crizotinib; first compound 0.5 µM) | relative viability (XMD13-2 + Crizotinib; first compound 1.581 µM) | relative viability (XMD13-2 + Crizotinib; first compound 5 µM)
NCI-H2009 | 0.344 | 0.271 | 0.29 | 0.307 | 0.264 | 1.05 | 1.12 | 1.4 | 1.02 | 1.01 | 0.836 | 0.828 | 0.783 | 0.575 | 0.438 | 1.09 | 1.03 | 1.05 | 1 | 1.12
COR-L23 | 0.611 | 0.591 | 0.684 | 0.552 | 0.626 | 1.12 | 0.994 | 1.04 | 1.08 | 1.09 | 0.839 | 0.548 | 0.739 | 0.72 | 0.779 | 0.746 | 0.51 | 0.765 | 0.653 | 0.759
NCI-H460 | 0.288 | 0.13 | 0.209 | 0.195 | 0.167 | 1.38 | 1.09 | 1.15 | 1.18 | 1.34 | 0.443 | 0.337 | 0.357 | 0.431 | 0.4 | 1.25 | 0.951 | 0.99 | 0.949 | 0.873
LCLC-103H | 0.66 | 0.677 | 0.742 | 0.738 | 0.76 | 1.03 | 1.1 | 1.08 | 1.02 | 1.21 | 0.544 | 0.859 | 0.692 | 0.67 | 0.546 | 1.05 | 1.01 | 1.18 | 1 | 1.14
HCC-827 | 0.611 | 0.502 | 0.528 | 0.49 | 0.473 | 1.05 | 1.02 | 1.04 | 0.957 | 1.04 | 0.988 | 1.03 | 0.887 | 0.815 | 1.03 | 0.974 | 0.923 | 0.906 | 0.807 | 0.682
NCI-H322M | 0.396 | 0.51 | 0.446 | – | 0.565 | 1.34 | 1.29 | 1.3 | 1.28 | 1.54 | 0.449 | 0.49 | 0.479 | 0.499 | 0.556 | 0.913 | 0.937 | 1.09 | 0.814 | 1.01
NCI-H1666 | 0.745 | 0.937 | 0.89 | 0.799 | 0.987 | 0.893 | 0.838 | 1.02 | 0.763 | 0.468 | 0.639 | 0.578 | 0.406 | 0.477 | 0.501 | 0.832 | 0.989 | 1.09 | 0.971 | 0.855
NCI-H1437 | 0.598 | 0.49 | 0.482 | 0.498 | 0.417 | 0.667 | 0.551 | 0.658 | 0.527 | 0.597 | 0.435 | 0.414 | – | 0.432 | 0.399 | 0.874 | 1.02 | 0.902 | 0.886 | 1.07
